Each structure is given as a SMILES string.

The text below walks through data of BindingDB's records for doi:10.1021/jm060166w (University of Tours, 2006).

The target in this assay is 5-hydroxytryptamine receptor 1A (Sus scrofa). The assay is described as follows: Displacement of [3H]8-OH-DPAT from 5HT1A receptor in porcine cortical membrane. (Displacement assays read how much labelled ligand stays bound in the presence of the test substance.)

For orientation: Ki means a measure of affinity in units of concentration, obtained from inhibition or displacement. A low value points to higher affinity. Turning to `Fc1ccc(N2CCN(Cc3cn4ccccc4n3)CC2)cc1` [2-[4-(4-fluorophenyl)piperazin-1-ylmethyl]imidazo[1,2-a]pyridine], the Ki is 3.6 µM. That is a single-digit micromolar value.
